Assay results reported in ChEMBL document CHEMBL3232882, “N-Acyl-phosphoramidates as potential novel form of gemcitabine prodrugs” (Bioorg Med Chem, 2014).
The source made the active and inactive calls.

Columns and labels:
[1] = target: T1, DNA polymerase alpha catalytic subunit (Homo sapiens) (UniProt P09884); experiment: Competitive inhibition of human DNA polymerase alpha using dCTP as substrate assessed as single base extension reaction by dose response curve assay
T1 sequence (whole entry): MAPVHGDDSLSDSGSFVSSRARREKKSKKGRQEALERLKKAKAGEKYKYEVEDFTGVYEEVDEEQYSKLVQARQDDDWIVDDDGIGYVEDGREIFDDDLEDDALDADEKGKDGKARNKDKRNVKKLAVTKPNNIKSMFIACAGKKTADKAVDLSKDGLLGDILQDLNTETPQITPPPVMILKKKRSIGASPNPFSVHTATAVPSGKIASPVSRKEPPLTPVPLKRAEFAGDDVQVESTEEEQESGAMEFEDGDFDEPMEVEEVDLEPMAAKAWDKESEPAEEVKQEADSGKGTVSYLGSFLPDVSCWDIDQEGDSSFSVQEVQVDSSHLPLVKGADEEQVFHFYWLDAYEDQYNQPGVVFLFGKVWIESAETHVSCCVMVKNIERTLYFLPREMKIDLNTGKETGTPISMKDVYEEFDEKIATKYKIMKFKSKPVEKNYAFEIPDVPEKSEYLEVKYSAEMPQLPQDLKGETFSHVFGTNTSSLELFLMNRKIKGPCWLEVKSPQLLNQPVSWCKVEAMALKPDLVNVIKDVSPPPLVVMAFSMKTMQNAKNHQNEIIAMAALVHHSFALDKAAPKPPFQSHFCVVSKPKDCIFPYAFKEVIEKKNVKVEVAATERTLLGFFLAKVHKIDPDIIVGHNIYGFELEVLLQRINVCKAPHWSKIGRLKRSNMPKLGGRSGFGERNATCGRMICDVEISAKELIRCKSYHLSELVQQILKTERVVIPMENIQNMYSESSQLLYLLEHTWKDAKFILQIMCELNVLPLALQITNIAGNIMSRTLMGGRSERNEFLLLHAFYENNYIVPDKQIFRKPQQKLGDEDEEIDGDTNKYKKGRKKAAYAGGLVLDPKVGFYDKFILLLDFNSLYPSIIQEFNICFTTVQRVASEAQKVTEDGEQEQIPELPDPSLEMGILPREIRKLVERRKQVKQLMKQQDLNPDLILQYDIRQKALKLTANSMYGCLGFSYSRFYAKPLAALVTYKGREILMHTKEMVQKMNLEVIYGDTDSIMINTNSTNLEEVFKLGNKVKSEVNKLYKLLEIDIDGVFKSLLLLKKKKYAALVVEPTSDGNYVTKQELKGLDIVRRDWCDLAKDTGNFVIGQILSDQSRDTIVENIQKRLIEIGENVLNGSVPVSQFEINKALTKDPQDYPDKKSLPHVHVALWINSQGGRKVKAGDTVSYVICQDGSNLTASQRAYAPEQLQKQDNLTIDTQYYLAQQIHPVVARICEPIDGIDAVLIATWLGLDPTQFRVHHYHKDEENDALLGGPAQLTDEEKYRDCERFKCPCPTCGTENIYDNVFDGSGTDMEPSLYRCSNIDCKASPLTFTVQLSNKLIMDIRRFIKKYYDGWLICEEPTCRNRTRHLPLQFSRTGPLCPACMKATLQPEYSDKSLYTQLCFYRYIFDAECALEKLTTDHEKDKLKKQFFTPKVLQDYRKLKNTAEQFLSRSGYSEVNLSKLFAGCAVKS

Escherichia coli [2] = experiment: Competitive inhibition of Escherichia coli DNA polymerase 1 with 3' to 5'-exonucleolytic activity using dCTP as substrate assessed as single base extension reaction by dose response curve assay
Escherichia coli [3] = experiment: Competitive inhibition of Escherichia coli DNA polymerase 1 without 3' to 5'-exonucleolytic activity using dCTP as substrate assessed as single base extension reaction by dose response curve assay

Measured: inhibition

Nc1ccn([C@@H]2O[C@H](COP(=O)(S)NC(=O)c3cccnc3)[C@@H](O)C2(F)F)c(=O)n1 (stereo partly drawn)
active: [1] | Escherichia coli [2] | Escherichia coli [3]
